US11976068B2 (CHIMERIX, INC., priority 2015, dated 2024)

Columns and labels:
[1] = system: advanced solid tumors; assay: Phase I trial, tumor response (RECIST); type: in vivo, human
Description: Tumor responses were assessed using RECIST every 2 cycles.

[2] = system: TRAIL; assay: Phase I trial, serum TRAIL ELISA; type: in vivo, human
[3] = system: 1020 genetically annotated cell lines; assay: Tumor type in vitro sensitivity, GDSC cell lines, cell viability at 72 hours; type: cell-based; conditions: tertile of average IC50
Source text: The estimated IC50 values were averaged across multiple cell lines for each tumor type. Tumor types were categorized into three different groups that represented tertiles of average IC50 values.

[4] = system: human foreskin fibroblasts (HFF), human fetal lung fibroblast (MRC-5) cells, human lung fibroblast cell line (WI-38); conditions: 72 hours
[5] = system: human colon cancer cell line (HCT116), breast tumor cell line (MDA-MB-231), human primary glioblastoma cell line (U87); assay: Cell viability, tumor cells (FIG. 1)

Structure (SMILES): Cc1ccccc1CN1C(=O)C2=C(CCN(Cc3ccccc3)C2)N2CCN=C12 [ONC201, 7-benzyl-4-(2-methylbenzyl)-2,4,6,7,8,9-hexahydroimidazo [1,2-a]pyrido[3,4-e]pyrimidin-5(1H)-one]
- Time on Study ([1]; Pat # 1, NSCLC, 125 mg, 4 doses): 12 weeks
- Time on Study ([1]; Pat # 2, Appendiceal cancer, 250 mg, 4 doses): 12 weeks
- Time on Study ([1]; Pat # 3, Uterine cancer, 375 mg, 2 doses): 6 weeks
- Time on Study ([1]; Pat # 4, Renal cancer, 500 mg, 2 doses): 6 weeks
- Time on Study ([1]; Pat # 5, Breast cancer, 625 mg, 2 doses): 6 weeks
- Time on Study ([1]; Pat # 6, Prostate adenocarcinoma, 625 mg, 9 doses): 27 weeks
- Time on Study ([1]; Pat # 7, Small cell lung cancer, 625 mg, 2 doses): 6 weeks
- Time on Study ([1]; Pat # 8, Colon adenocarcinoma, 625 mg, 4 doses): 12 weeks
- Time on Study ([1]; Pat # 9, Spindle cell sarcoma, 625 mg, 2 doses): 6 weeks
- Time on Study ([1]; Pat # 10, Ovarian, 625 mg, 1 dose): 3 weeks
- decrease of multiple nodes ([1]; Patient #3, advanced clear cell endometrial cancer, mixed response with new nodes): > 30%
- symptom relief ([1]; Patient #4, renal cancer and bone metastasis with debilitating pain in the clavicle): relief from their clavicular pain
- patients with stable disease ([1]; dose escalation phase, 10 patients): Eight of 10
- increase in serum TRAIL ([2]; half of the patients, mostly peaked within the first 24 hours of drug administration): ~20%
- number of patients with serum TRAIL induction ([2]; serum soluble TRAIL): 2
- Tumor Type In Vitro Sensitivity ([3]; tumor type Breast cancer): Low
- Tumor Type In Vitro Sensitivity ([3]; tumor type Colon adenocarcinoma): High
- Tumor Type In Vitro Sensitivity ([3]; tumor type NSCLC): Med
- Tumor Type In Vitro Sensitivity ([3]; tumor type Ovarian): Med
- Tumor Type In Vitro Sensitivity ([3]; tumor type Prostate adenocarcinoma): High
- Tumor Type In Vitro Sensitivity ([3]; tumor type Renal cancer): Med
- Tumor Type In Vitro Sensitivity ([3]; tumor type Small cell lung cancer): High
- Tumor Type In Vitro Sensitivity ([3]; tumor type Spindle cell sarcoma): Low
- Tumor Type In Vitro Sensitivity ([3]; tumor type Uterine cancer): Med
- cell viability of normal cells ([4]; about 1-5 mg/mL compound (1)): at least 75%
- viability of normal cells ([4]; beyond about 5 mg/mL compound (1)): about 75%
- viability at 5000 µg/mL ([5]; Homo sapiens, 72 h, read-out: viability of tumor cells): < 25%
- viability of tumor cells ([5]; about 1-5 mg/mL compound (1), 72 hours): ≤ 50%
